Literature values, collected in patent US20140105862A1, “STREPTOMYCES MICROFLAVUS STRAINS AND METHODS OF THEIR USE TO CONTROL PLANT DISEASES AND PESTS” (priority 2012, published 2014).

Columns and labels:
powdery mildew = conditions: according to GB 1 507 193
[1] = tested on: parasites on animals, such as pin worm; conditions: according to U.S. Pat. No. 3,849,398
[2] = tested on: gram-positive, gram-negative bacteria and tubercule bacillus; conditions: according to U.S. Pat. No. 3,849,398

SMILES: NC(N)=NCC(O)CC(O)(C(=O)O)[C@H]1O[C@@H](n2cc(CO)c(N)nc2=O)C=C[C@@H]1NC(=O)[C@@H](N)CO (stereo partly drawn) [Strain B-98891]
- antifungal activity (powdery mildew): antifungal activity

SMILES: CNCC(=O)NC(CO)C(=O)NC1C(C(N)=O)OC(n2ccc(N)nc2=O)C(O)C1O (stereo not drawn) [gougerotin]
- parasiticidal action [1]: parasiticidal action
- antibacterial activity [2]: weak antibacterial activity
